According to patent US8153818B2, “Triazolyl phenyl benzenesulfonamides” (ChemoCentryx, Inc., priority 2006, dated 2012):
pIC50: −log10 of the molar value.

biological target: T1, CCR2 (Homo sapiens, UniProt P41597); assay: CCR2 activity in one of the chemotaxis, binding or calcium mobilization assays; type: cell-based; conditions: assay not specified per compound
T1 construct: CCR2 expressing THP-1 cells were centrifuged and resuspended in assay buffer; host or cells: THP-1
T1 sequence (P41597 1-360 isoform P41597-2): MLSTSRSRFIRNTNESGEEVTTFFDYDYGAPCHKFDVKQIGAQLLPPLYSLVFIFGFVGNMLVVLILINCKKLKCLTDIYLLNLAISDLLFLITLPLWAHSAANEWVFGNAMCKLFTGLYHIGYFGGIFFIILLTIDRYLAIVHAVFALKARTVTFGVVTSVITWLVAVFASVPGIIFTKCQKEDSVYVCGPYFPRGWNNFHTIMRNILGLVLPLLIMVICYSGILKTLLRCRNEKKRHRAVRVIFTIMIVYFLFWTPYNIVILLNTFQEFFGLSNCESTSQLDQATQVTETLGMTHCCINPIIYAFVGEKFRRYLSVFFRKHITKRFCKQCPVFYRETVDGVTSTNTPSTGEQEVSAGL
Protocol: Conventional migration assay was used to determine the efficacy of potential receptor antagonists in blocking migration mediated through chemokines (such as CCR2 or CCR9). This assay was routinely performed using the ChemoTX® microchamber system with a 5-μm pore-sized polycarbonate membrane. To begin such an assay, chemokine expressing cells (such as THP-1 cells for CCR2 assay or MOLT-4 cells for CCR9 assay) were harvested by centrifugation of cell suspension at 1000 RPM on a GS-6R Beckman centrifuge. The cell pellet was resuspended in chemotaxis buffer (HBSS with 0.1% BSA) at 10×10^6 cells/mL for CCR2 assay (5×10^6 cells/mL for CCR9 assay). Test compounds at desired concentrations were prepared from 10 mM stock solutions by serial dilutions in chemotaxis buffer. An equal volume of cells and compounds were mixed and incubated at room temperature for 15 minutes. Afterwards, 20 μL of the mixture was transferred onto the porous membrane of a migration microchamber, with 29 μL of chemokine ligand (0.1 nM chemokine MCP-1 protein for CCR2 assay or […] chemokine TECK protein for CCR9 assay) placed at the lower chamber. Following an incubation at 37° C. (90-minute for CCR2; 150-minute for CCR9), during which cells migrated against the chemokine gradient, the assay was terminated by removing the cell drops from atop the filter. To quantify cells migrated across the membrane, 5 μL of 7×CyQUANT® solution was added to each well in the lower chamber, and the fluorescence signal measured on a Spectrafluor Plus fluorescence plate reader (TECAN, Durham, N.C.). The degree of inhibition was determined by comparing migration signals between compound-treated and untreated cells. IC50 calculation was further performed by non-linear squares regression analysis using Graphpad Prism (Graphpad Software, San Diego, Calif.).
Calcium flux assay measures an increase in intracellular calcium following ligand-induced receptor activation. In the screen of chemokine antagonists, it was used as a secondary assay carried out on a FLIPR® machine (Molecular Devices, Mountain View, Calif.). To begin an assay, chemokine expressing cells (such as THP-1 cells for CCR2 assay or MOLT-4 cells for CCR9 assay) were harvested by centrifugation of cell suspension, and resuspended to 1.5×10^6 cells/mL in HBSS (with 1% fetal calf serum). Cells were then labeled with a calcium indicator dye Fluo-4 AM for 45 minutes at 37° C. with gentle shaking. Following incubation, cells were pelletted, washed once with HBSS and resuspended in the same buffer at a density of 1.6×10^6 cells/mL. One hundred microliters of labeled cells were mixed with 10 μL of test compound at the appropriate concentrations on an assay plate. Chemokine protein (MCP-1 at a final concentration of 0.1 nM for CCR2 assay or TECK at a final concentration of 25 nM for CCR9 assay) to activate the receptor. The degree of inhibition was determined by comparing calcium signals between compound-treated and untreated cells. IC50 calculations were further performed by non-linear squares regression analysis using Graphpad Prism (Graphpad Software, San Diego, Calif.).
Ligand binding assay was used to determine the ability of potential CCR2 antagonists to block the interaction between CCR2 and its ligand MCP-1. CCR2 expressing THP-1 cells were centrifuged and resuspended in assay buffer (20 mM HEPES pH 7.1, 140 mM NaCl, 1 mM CaCl2, 5 mM MgCl2, and with 0.2% bovine serum albumin) to a concentration of 2.2×10^5 cells/mL. Binding assays were set up as follows. […]

pIC50, > 6.00:
O=S(=O)(Nc1cc(Cl)ccc1-c1nncn1-c1cc[nH]n1)c1ccc(Cl)c(C(F)(F)F)c1 [Compound 157]
Cc1nnc(-c2ccc(Cl)cc2NS(=O)(=O)c2ccc(Cl)c(C(F)(F)F)c2)n1-c1cc[nH]n1 [Compound 158]
O=S(=O)(Nc1cc(Cl)ccc1-c1nncn1-c1ccccc1)c1ccc(Cl)c(C(F)(F)F)c1 [Compound 159, 4-chloro-N-(5-chloro-2-(4-phenyl-4H-1,2,4-triazol-3-yl)phenyl)-3-(trifluoromethyl)benzenesulfonamide]
O=S(=O)(Nc1cc(Cl)c(F)cc1-c1nncn1-c1cc[nH]n1)c1ccc(Cl)c(C(F)(F)F)c1 [Compound 160, N-(2-(4-(1H-pyrazol-3-yl)-4H-1,2,4-triazol-3-yl)-5-chloro-4-fluorophenyl)-4-chloro-3-(trifluoromethyl)benzenesulfonamide]
NC(=O)c1nnc(-c2cc(F)c(Cl)cc2NS(=O)(=O)c2ccc(Cl)c(C(F)(F)F)c2)n1-c1cc[nH]n1 [Compound 161, 5-(4-chloro-2-(4-chloro-3-(trifluoromethyl)phenylsulfonamido)-5-fluorophenyl)-4-(1H-pyrazol-3-yl)-4H-1,2,4-triazole-3-carboxamide]
